Structures are written as SMILES. Structures can show the parent of a compound that is named as a salt. Where two headings read alike, the source gives them in different places.

The term Ki denotes a dissociation constant, usually derived from enzyme kinetics or from competition with a known ligand. A word on the IC50: it is the concentration at which inhibition is half-maximal. Usually inhibition stands for the percentage by which the read-out fell short of the control.

The target of assay [1] is T1, unphosphorylated VEGF-R2Δ50 (FLVK) (Homo sapiens, UniProt P35968, DEL940-989/E990V).
T1 construct: VEGF-R2Δ50 contains residues 806-939 and 990-1171; made in house; host or cells: baculovirus/insect cells
The experiment in a line: VEGF-R2 coupled spectrophotometric assay, unphosphorylated construct (FLVK).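 Further: Baculovirus-expressed cytosolic kinase domain, ADP formation linked via pyruvate kinase and lactate dehydrogenase to NADH oxidation, read as falling absorbance at 340 nm.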 It is filed as biochemical.

Assay [2] relates to human umbilical vein endothelial cells (HUVEC). The experiment in a line: HUVEC proliferation assay (VEGF-stimulated, MTT). It counts as cell-based. As to the method:
This assay determines the ability of a test compound to inhibit the growth factor-stimulated proliferation of human umbilical vein endothelial cells (“HUVEC”). HUVEC cells (passage 3-4, Clonetics, Corp.) were thawed into EGM2 culture medium (Clonetics Corp) in T75 flasks. Fresh EGM2 medium was added to the flasks 24 hours later. Four or five days later, cells were exposed to another culture medium (F12K medium supplemented with 10% fetal bovine serum (FBS), 60 μg/ml endothelial cell growth supplement (ECGS), and 0.1 mg/ml heparin). Exponentially-growing HUVEC cells were used in experiments thereafter. Ten to twelve thousand HUVEC cells were plated in 96-well dishes in 100 μl of rich, culture medium (described above). The cells were allowed to attach for 24 hours in this medium. The medium was then removed by aspiration and 105 μl of starvation media (F12K+1% FBS) was added to each well. After 24 hours, 15 μl of test agent dissolved in 1% DMSO in starvation medium or this vehicle alone was added into each treatment well; the final DMSO concentration was 0.1%. One hour later, 30 μl of VEGF (30 ng/ml) in starvation media was added to all wells except those containing untreated controls; the final VEGF concentration was 6 ng/ml. Cellular proliferation was quantified 72 hours later by MTT dye reduction, at which time cells were exposed for 4 hours MTT (Promega Corp.). Dye reduction was stopped by addition of a stop solution (Promega Corp.) and absorbance at 595 λ was determined on a 96-well spectrophotometer plate reader.

For assay [3], the target named is T2, phosphorylated VEGF-R2Δ50 (FLVK-P) (Homo sapiens, UniProt P35968, DEL940-989/E990V).
T2 construct: VEGF-R2Δ50 contains residues 806-939 and 990-1171; made in house; host or cells: baculovirus/insect cells
As to the kind of experiment: VEGF-R2 coupled spectrophotometric assay, phosphorylated construct (FLVK-P). It is filed as biochemical. An excerpt:
A construct (VEGF-R2Δ50) of the cytosolic domain of human vascular endothelial growth factor receptor 2 (VEGF-R2) lacking the 50 central residues of the 68 residues of the kinase insert domain was expressed in a baculovirus/insect cell system. Of the 1356 residues of full-length VEGF-R2, VEGF-R2Δ50 contains residues 806-939 and 990-1171, and also one point mutation (E990V) within the kinase insert domain relative to wild-type VEGF-R2. See commonly assigned, co-pending U.S. patent application Ser. No. 09/390,326, filed Sep. 7, 1999, incorporated by reference herein, for discussion of VEGF constructs and expression systems. Autophosphorylation of the purified construct was performed by incubation of the enzyme at a concentration of 4 μM in the presence of 3 mM ATP and 40 mM MgCl2 in 100 mM Hepes, pH 7.5, containing 5% glycerol and 5 mM DTT, at 4° C. for 2 h. […] See Parast et al., Biochemistry, 37, 16788-16801 (1998).
The production of ADP from ATP that accompanies phosphoryl transfer was coupled to oxidation of NADH using phosphoenolpyruvate (PEP) and a system having pyruvate kinase (PK) and lactic dehydrogenase (LDH). The oxidation of NADH was monitored by following the decrease of absorbance at 340 nm (e340=6.22 cm^−1 mM^−1) using a Beckman DU 650 spectrophotometer. Assay conditions for phosphorylated VEGF-R2Δ50 (indicated as FLVK-P in the tables below) were the following: 1 mM PEP; 250 μM NADH; 50 units of LDH/mL; 20 units of PK/mL; 5 mM DTT; 5.1 mM poly(E4Y1); 1 mM ATP; and 25 mM MgCl2 in 200 mM Hepes, pH 7.5. Assay conditions for unphosphorylated VEGF-R2Δ50 (indicated as FLVK in the tables) were the following: 1 mM PEP; 250 μM NADH; 50 units of LDH/mL; 20 units of PK/mL; 5 mM DTT; 20 mM poly(E4Y1); 3 mM ATP; and 60 mM MgCl2 and 2 mM MnCl2 in 200 mM Hepes, pH 7.5. Assays were initiated with 5 to 40 nM of enzyme. Ki values were determined by measuring enzyme activity in the presence of varying concentrations of test compounds. The data were analyzed using Enzyme Kinetic and Kaleidagraph software.

Assay [4] deals with lung cancer cells (line MV522). The experiment in a line: Cancer cell proliferation (MV522) assay (MTT). It is filed as cell-based. As to the method:
The protocol for assessing cellular proliferation in cancer cells is similar to that used for assessments in HUVEC cells. Two thousand lung cancer cells (line MV522, acquired from American Tissue Cultural Collection) were seeded in growth media (RPMI1640 medium supplemented with 2 mM glutamine and 10% FBS). Cells are allowed to attach for 1 day prior to addition of test agents and/or vehicles. Cells are treated simultaneously with the same test agents used in the HUVEC assay. Cellular proliferation is quantified by MTT dye reduction assay 72 hours after exposure to test agents. The total length of the assay is 4 days vs. 5 for HUVEC cells because MV522 cells are not exposed to starvation medium.

Setting [5] is: unphosphorylated VEGF-R2 construct.
[6] abbreviates: Homo sapiens, HUVEC, read-out: HUVEC IC50.

T1 sequence (P35968 with tags, fused parts or gaps DEL940-989/E990V limits assumed): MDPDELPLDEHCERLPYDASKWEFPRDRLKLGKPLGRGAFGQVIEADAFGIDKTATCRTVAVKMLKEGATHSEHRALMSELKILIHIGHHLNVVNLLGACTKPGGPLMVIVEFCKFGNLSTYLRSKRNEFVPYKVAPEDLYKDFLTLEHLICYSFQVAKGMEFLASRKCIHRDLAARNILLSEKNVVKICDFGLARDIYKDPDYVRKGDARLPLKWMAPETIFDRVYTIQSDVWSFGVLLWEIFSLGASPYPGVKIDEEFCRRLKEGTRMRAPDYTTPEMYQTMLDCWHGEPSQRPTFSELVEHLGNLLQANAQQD
T2 sequence (P35968 with tags, fused parts or gaps DEL940-989/E990V limits assumed): as above

For `O=C(Nc1ccc(N2CCNCC2)c(C(F)(F)F)c1)c1ccc(F)c(CCc2cnc3[nH]cnc3c2)c1` [DD-1, 4-Fluoro-3-[2-(3H-imidazo[4,5-b]pyridin-6-yl)-ethyl]-N-(4-piperazin-1-yl-3-trifluoromethyl-phenyl)-benzamide dihydrochloride], the Ki in assay [1] (setting [5]) turned out to be 5.6 nM. Besides, the IC50 in assay [2] (Homo sapiens, HUVEC proliferation with albumin, read-out: Huvec + Albumin IC50) was 700 nM.
Turning to `N#Cc1ccc(NC(=O)c2cccc(CSc3ncnc4[nH]ncc34)c2)cc1C(F)(F)F` [Example B-12, N-[4-cyano-3-(trifluoromethyl)phenyl]-3-[(1H-pyrazolo[3,4-d]pyrimidin-4-yl-sulfanyl)methyl]benzamide], the affinity in assay [3] corresponds to a Ki of 28 nM. The results for the 50% inhibitory concentration (IC50) in assay [4] (MV522) and in assay [2] (setting [6]) were greater than 10000 nM and 530 nM, respectively.
For `CC(C)c1cccc(NC(=O)c2cccc(CSc3ncnc4[nH]ncc34)c2)c1` [Example B-15, 3-[(1H-Pyrazolo[3,4-d]pyrimidin-4-yl)sulfanylmethyl]-N(3-isopropylphenyl)-benzamide], the Ki in assay [3] turned out to be 15.7 nM. For the same molecule, the IC50 in assay [4] (MV522) was greater than 10000 nM; in assay [2] (setting [6]), 120 nM.
As for `O=C(Nc1cc(C(F)(F)F)cc(C(F)(F)F)c1)c1cccc(CSc2ncnc3[nH]ncc23)c1` [Example B-17, 3-[(1H-Pyrazolo[3,4-d]pyrimidin-4-yl)sulfanylmethyl]-N(3,5-bis-trifluoromethylphenyl)-benzamide], in assay [3], the inhibition constant Ki came to 6.95 nM. In addition, the IC50 is greater than 10000 nM in assay [4] (MV522) and greater than 700 nM in assay [2] (setting [6]).
`CC(C)(C)c1cccc(NC(=O)c2cccc(CSc3ncnc4[nH]ncc34)c2)c1` [Example B-18, 3-[(1H-Pyrazolo[3,4-d]pyrimidin-4-yl)sulfanylmethyl]-N(3-t-butylpheny)-benzamide] returned a Ki in assay [3] of 5.84 nM. The figures for the 50% inhibitory concentration (IC50) in assay [4] and in assay [2] (read-out: HUVEC IC50) were greater than 10000 nM and 130 nM, respectively.
With `Cc1cc(NC(=O)c2cccc(SCc3cnccn3)c2)ccc1C(C)C` [Example D-1, N-(4-Isopropyl-3-methylphenyl)-3-[(pyrazin-2-yl)methylsulfanyl]benzamide], the inhibitory constant (Ki) in assay [3] came to 28 nM. Also, the IC50 in assay [4] (MV522) was greater than 10000 nM; in assay [2] (setting [6]), 520 nM.
The molecule `COc1cc(/C=C/c2cc(CSc3cccc(C(=O)Nc4ccc5nc(C)ccc5c4)c3)[nH]n2)ccc1O` [Example F-1, 3-[{5-((E)-2-(4-Hydroxy-3-methoxyphenyl)ethenyl)-2H-pyrazol-3-yl}methylsulfanyl]-N-(2-methylquinolin-6-yl)benzamide] registered a Ki in assay [3] of 2.36 nM. The IC50 in assay [4] (MV522) is greater than 10000 nM; in assay [2] (setting [6]), 710 nM.
For `COc1cc(/C=C/c2cc(CNc3cccc(C(=O)Nc4ccc(C(C)C)c(C)c4)c3)[nH]n2)ccc1O` [Example I-1, 3-[({3-[(E)-2-(4-hydroxy-3-methoxyphenyl)ethenyl]-1H-pyrazol-5-yl}methyl)amino]-N-(3-methyl-4-isopropylphenyl)benzamide] the same measures were 8.84 nM, greater than 10000 nM and 220 nM.
Turning to `CSc1cc(C)nc2ccc(NC(=O)c3cccc(OCc4cncc5ccccc45)c3)cc12` [Example K-4, 3-(Isoquinolin-4-yl)methoxy-N-(2-methyl-4-methylsulfanyl-quinolin-6-yl)-benzamide hydrochloride], the Ki in assay [3] is 64 nM. The IC50 is greater than 10000 nM in assay [4] (MV522) and 380 nM in assay [2] (setting [6]).
Regarding `Cc1ccc2cc(NC(=O)c3cccc(OCc4cccnc4)c3)ccc2n1` [Example K-9, N-(2-Methyl-quinolin-6-yl)-3-(pyridin-3-yl)methoxy-benzamide], the values for the inhibition constant Ki in assay [3] and in assay [1] were 109 nM and 10 nM, respectively.
Consider `O=C(Nc1ccc2c(c1)CCCN2)c1ccc(F)c(OCc2cncc3ccccc23)c1` [Example O-1, 4-Fluoro-N-(1,2,3,4-tetrahydroquinolin-6-yl)-3-(isoquinolin-4-ylmethoxy)-benzamide bistrifluoroacetic acid salt], for which, in assay [1], the inhibition constant (Ki) worked out at 5.5 nM. Besides, the 50% inhibitory concentration (IC50) was less than 3000 nM in assay [4] (MV522) and greater than 300 nM in assay [2] (setting [6]).
As to `Cc1c(Br)cc(NC(=O)c2cccc(OCc3cncc4ccccc34)c2)cc1Br` [Example R-2, N-(3,5-Dibromo-4-methyl-phenyl)-3-(isoquinolin-4-ylmethoxy)-benzamide], the affinity in assay [3] corresponds to a Ki of 2.53 nM. Moreover, the IC50 in assay [4] (MV522) came out at 430 nM; in assay [2] (setting [6]), 110 nM.
Consider `CC1(C)CCC(C)(C)c2cc(NC(=O)c3cccc(OCc4cncc5ccccc45)c3)ccc21` [Example R-3, 3-(Isoquinolin-4-ylmethoxy)-N-(5,5,8,8-tetramethyl-5,6,7,8-tetrahydronaphthalen-2-yl)-benzamide], for which, in assay [3] (@ 5 μM, read-out: FLVK-P percent inhibition), the inhibition at 5 µM came out at 67%. For the same molecule, the IC50 in assay [4] (MV522) is 9700 nM; in assay [2] (setting [6]), 50 nM.
`O=C(Nc1ccc(N2CCNCC2)c(C(F)(F)F)c1)c1ccc(F)c(OCc2cnc3ccccc3c2)c1` [Example R-17, 4-Fluoro-N-(4-piperazin-1-yl-3-trifluoromethyl-phenyl)-3-(quinolin-3-ylmethoxy)-benzamide] registered a Ki in assay [1] of 7.4 nM. In addition, the concentration for half-maximal inhibition (IC50) in assay [2] (setting [6]) is 32 nM.
`O=C(Nc1ccc(N2CCNCC2)c(C(F)(F)F)c1)c1ccc(F)c(OCc2cncc(Br)c2)c1` [Example R-25, 3-(5-Bromo-pyridin-3-ylmethoxy)-4-fluoro-N-(4-piperazin-1-yl-3-trifluoromethyl-phenyl)-benzamide]: the inhibition constant (Ki) in assay [1] is 6.6 nM. Also, in assay [2] (Homo sapiens, HUVEC, with albumin, read-out: Huvec + Albumin IC50), the half-maximal inhibitory concentration (IC50) was found to be 155 nM.
Consider `Cc1cc(NC(=O)c2cccc(CCc3cncc4ccccc34)c2)ccc1C(C)C` [Example S-3, N-(4-Isopropyl-3-methyl-phenyl)-3-(2-isoquinolin-4-yl-ethyl)-benzamide], for which the inhibitory constant (Ki) came to 8.7 nM in assay [3] and 0.76 nM in assay [1]. Besides, the IC50 in assay [2] (setting [6]) was 180 nM.
On to `Cc1cc(NC(=O)c2cc(CCc3cncc4ccccc34)c(F)cc2Cl)ccc1C(C)C` [Example S-7, 2-Chloro-4-fluoro-N-(4-isopropyl-3-methyl-phenyl)-5-(2-isoquinolin-4-yl-ethyl)-benzamide], for which the inhibition at 0.05 µM in assay [1] (@ 50 nM, read-out: FLVK percent inhibition) is 19%. For the same molecule, the 50% inhibitory concentration (IC50) in assay [2] (setting [6]) was greater than 300 nM.
The molecule `O=C(Nc1cccc(CSc2ncnc3[nH]ncc23)c1)c1cc(C(F)(F)F)cc(C(F)(F)F)c1` [Example V-2] returned an inhibition constant (Ki) in assay [3] of 13 nM. The IC50 was found to be 10000 nM in assay [4] (MV522) and 180 nM in assay [2] (setting [6]).
`CC(C)(C)c1cc(C(=O)Nc2cccc(OCc3cncc4ccccc34)c2)ccc1O` [Example X-5, 3-t-Butyl-4-hydroxy-N-[3-(isoquinolin-4-ylmethoxy)-phenyl]-benzamide] gave a Ki in assay [1] (setting [5]) of 1.3 nM. Also, the IC50 in assay [4] (MV522 lung cancer cells) came to 3700 nM; in assay [2] (Homo sapiens, VEGF-stimulated HUVEC proliferation, read-out: HUVEC IC50), 29 nM.

For the origin of these results see patent US6635641B2 (Agouron Pharmaceuticals, Inc., priority 2000, dated 2003).
